Some test systems named below: 786-0 renal; BT-549 breast; COLO 205 colon; DU-145 prostate; HL-60(TB) leukemia; K-562 leukemia; LOX IMVI melanoma; MDA-MB-231 breast; MDA-N; NCI-H522 lung; PC-3 prostate; SF-539 CNS; SK-MEL-2 melanoma; SN12C renal; SNB-75 CNS; UACC-62 melanoma; UO-31 renal; HOP-62 NSCLC; HT29 colon; MOLT-4 leukemia.
Holding throughout (assay): inhibition of tumour cell growth, NCI panel, 48 h

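Test compounds were applied to cells in 96-well plates for 48 hours at 5 doses. Definition used: TGI = concentration required for complete inhibition of growth.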 Where only a bound is given, the exact number is not on record here.

Take `Cc1c(N/C=C(\C#N)C(=O)c2ccc(Cl)cc2)c(=O)n(-c2ccccc2)n1C`: the TGI in the assay on 786-0 renal, with BT-549 breast, in the assay with COLO 205 colon, in the assay on DU-145 prostate, in the assay with HL-60(TB) leukemia and in the assay with K-562 leukemia was over 100 µM each time. The TGI in the assay on LOX IMVI melanoma, in the assay with MDA-MB-231 breast, in the assay on MDA-N, in the assay with NCI-H522 lung, with PC-3 prostate and in the assay with SF-539 CNS was over 100 µM throughout. The TGI in the assay with SK-MEL-2 melanoma, in the assay on SN12C renal, in the assay with SNB-75 CNS, in the assay on UACC-62 melanoma and in the assay on UO-31 renal was over 100 µM in each case.

On to `O=C(Cc1nc2ncccc2[nH]c1=O)c1c[nH]c2ccccc12`, for which the TGI in the assay on 786-0 renal is 40.5 µM; in the assay on BT-549 breast it was 62 µM; in the assay on COLO 205 colon it was 31.2 µM; with DU-145 prostate it was 32.7 µM; with HL-60(TB) leukemia it was over 100 µM; with HOP-62 NSCLC, 36.9 µM. The TGI in the assay on HT29 colon was 60.9 µM; in the assay with K-562 leukemia, 63.2 µM; in the assay with LOX IMVI melanoma, 44 µM; in the assay with MDA-MB-231 breast, 35.3 µM; in the assay on MDA-N, 45.4 µM; with MOLT-4 leukemia, 94.8 µM. In addition, the TGI in the assay on NCI-H522 lung was determined as 35.4 µM; in the assay with PC-3 prostate, 29.9 µM; with SF-539 CNS it was 31.5 µM; in the assay with SK-MEL-2 melanoma, 30.8 µM; in the assay on SN12C renal, 35.9 µM; with UACC-62 melanoma, 31.2 µM. This compound displayed a TGI with UO-31 renal of 32.5 µM.

Turning to `CC(=O)c1cccc(NC(=O)C(=O)C(c2cnc3ccc([N+](=O)[O-])cc3n2)[N+](=O)[O-])c1` (stereo not given), the TGI in the assay on 786-0 renal, in the assay with BT-549 breast, in the assay on COLO 205 colon, in the assay with DU-145 prostate, in the assay with HL-60(TB) leukemia and in the assay on HOP-62 NSCLC was over 100 µM each time. In addition, the TGI with HT29 colon, with K-562 leukemia, in the assay with LOX IMVI melanoma, in the assay on MDA-MB-231 breast, with MDA-N and in the assay with MOLT-4 leukemia was over 100 µM in each case. In addition, the TGI with PC-3 prostate, in the assay on SF-539 CNS, in the assay on SK-MEL-2 melanoma, with SN12C renal, in the assay with SNB-75 CNS and in the assay on UACC-62 melanoma was over 100 µM each time. The TGI in the assay with UO-31 renal was over 100 µM.

Take `N#Cc1c(O)cc(=O)n2c1[nH]c1ccccc12`: the TGI in the assay on 786-0 renal, in the assay with BT-549 breast, with COLO 205 colon, in the assay with DU-145 prostate, in the assay on HL-60(TB) leukemia and in the assay with HOP-62 NSCLC was over 100 µM in each case. For the same compound, the TGI in the assay with HT29 colon, with K-562 leukemia, in the assay on MDA-MB-231 breast, in the assay on MDA-N, in the assay on MOLT-4 leukemia and with NCI-H522 lung was over 100 µM throughout. Besides, the TGI in the assay with PC-3 prostate, with SF-539 CNS, in the assay with SK-MEL-2 melanoma, in the assay with SN12C renal, with SNB-75 CNS and in the assay with UACC-62 melanoma was over 100 µM in each case. The compound further returned a TGI with UO-31 renal of over 100 µM.

For `N#Cc1nc(-c2ccccn2)oc1N`, the TGI with 786-0 renal, with BT-549 breast, with COLO 205 colon, in the assay on DU-145 prostate, with HL-60(TB) leukemia and in the assay on HOP-62 NSCLC was over 100 µM throughout. For the same compound, the TGI in the assay on HT29 colon, in the assay on K-562 leukemia, in the assay on LOX IMVI melanoma, with MDA-MB-231 breast, with MDA-N and with MOLT-4 leukemia was over 100 µM in each case. Further, the TGI with NCI-H522 lung, in the assay on PC-3 prostate, with SK-MEL-2 melanoma, with SN12C renal, with UACC-62 melanoma and in the assay on UO-31 renal was over 100 µM each time.

For the compound `CCOC(=O)c1nc2ccccc2nc1Oc1cc(OC)c(OC)c(OC)c1`, the TGI with 786-0 renal, in the assay with BT-549 breast, with COLO 205 colon, with DU-145 prostate, with HL-60(TB) leukemia and in the assay on HOP-62 NSCLC was over 100 µM each time. Further, the TGI in the assay with HT29 colon, in the assay with LOX IMVI melanoma, in the assay with MDA-MB-231 breast, in the assay with MDA-N, with MOLT-4 leukemia and in the assay with NCI-H522 lung was over 100 µM throughout. The TGI in the assay with PC-3 prostate, in the assay with SF-539 CNS, in the assay on SK-MEL-2 melanoma, in the assay with SN12C renal, with SNB-75 CNS and with UACC-62 melanoma was over 100 µM throughout. Moreover, the TGI in the assay on UO-31 renal is over 100 µM.

`COC(=O)[C@]1(c2cc3ccccc3[nH]2)CC2CN(CC(=O)N(C)OC)C1CC2(OC)OC` (stereo not given in full): the TGI in the assay on 786-0 renal was 57.7 µM; with BT-549 breast, 59.8 µM; in the assay on COLO 205 colon, over 100 µM; with DU-145 prostate, over 100 µM; in the assay on HL-60(TB) leukemia it was 39.5 µM; in the assay on HOP-62 NSCLC it was over 100 µM. Moreover, the TGI in the assay on HT29 colon was over 100 µM; in the assay with K-562 leukemia it was 66.4 µM; with LOX IMVI melanoma it was over 100 µM; with MDA-MB-231 breast, over 100 µM; in the assay on MDA-N it was over 100 µM; in the assay on NCI-H522 lung, 44.6 µM. The TGI was 71.9 µM in the assay with PC-3 prostate; over 100 µM with SF-539 CNS; over 100 µM with SK-MEL-2 melanoma; over 100 µM in the assay on SN12C renal; over 100 µM in the assay on SNB-75 CNS; over 100 µM with UACC-62 melanoma. Besides, in the assay with UO-31 renal, the TGI is over 100 µM.

The values above are taken from PubChem BioAssay (NCI).
